Results on 33 compounds are retold here after patent publication US11407771B2 (priority 2018, dated 2022).

The first test deals with T1, MAPK13 (Homo sapiens (Human), UniProt O15264).
T1 sequence (O15264 whole entry): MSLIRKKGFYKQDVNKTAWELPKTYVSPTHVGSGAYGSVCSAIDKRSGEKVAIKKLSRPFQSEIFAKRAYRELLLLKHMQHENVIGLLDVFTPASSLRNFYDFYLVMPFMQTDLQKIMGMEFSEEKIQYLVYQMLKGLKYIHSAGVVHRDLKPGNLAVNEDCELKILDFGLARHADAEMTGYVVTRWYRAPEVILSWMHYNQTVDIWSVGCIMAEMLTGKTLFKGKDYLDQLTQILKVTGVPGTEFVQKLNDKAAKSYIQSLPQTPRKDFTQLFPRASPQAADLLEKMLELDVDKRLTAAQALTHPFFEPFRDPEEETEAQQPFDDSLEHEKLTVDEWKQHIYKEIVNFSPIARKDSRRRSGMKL
Test: not given
As to conditions: read-out: MAPK13 IC50.
As for `CC(=O)Nc1cc(Oc2ccc(NC(=O)Nc3cc(C(C)(C)C)on3)c(F)c2)ccn1` [Compound 394, N-(4-{4-[3-(5-tert-Butyl-isoxazol-3-yl)-ureido]-3-fluoro-phenoxy}-pyridin-2-yl)-acetamide], the IC50 was 9 nM.
For the compound `CC(=O)Nc1cc(Oc2ccc(NC(=O)Nc3cc(C(C)(C)C)no3)c(F)c2)ccn1` [Compound 395, N-(4-{4-[3-(3-tert-Butyl-isoxazol-5-yl)-ureido]-3-fluoro-phenoxy}-pyridin-2-yl)-acetamide], the IC50 turned out to be 11 nM.

The same test, now with this note: read-out: MAPK13 inhibition.
Consider `CC(=O)Nc1cc(CCc2ccc(NC(=O)Nc3cc(C(C)(C)C)no3)c(F)c2)ccn1` [Compound 359, N-[4-(2-{4-[3-(3-tert-Butyl-isoxazol-5-yl)-ureido]-3-fluoro-phenyl}-ethyl)-pyridin-2-yl]-acetamide], for which the IC50 was greater than 1000 nM.
As for `CC(=O)Nc1cc(CCc2ccc(NC(=O)Nc3cc(C(F)(F)F)ccc3F)c(F)c2)ccn1` [Compound 360, N-[4-(2-{3-Fluoro-4-[3-(2-fluoro-5-trifluoromethyl-phenyl)-ureido]-phenyl}-ethyl)-pyridin-2-yl]-acetamide], the IC50 is greater than 1000 nM.
For `CC(=O)Nc1cc(CCc2ccc(NC(=O)Nc3cc(C(C)(C)C)nn3C)c(F)c2)ccn1` [Compound 361, N-[4-(2-{4-[3-(5-tert-Butyl-2-methyl-2H-pyrazol-3-yl)-ureido]-3-fluoro-phenyl}-ethyl)-pyridin-2-yl]-acetamide], the IC50 is greater than 1000 nM.
With `CCOC(=O)Nc1cc(CCc2cnc(NC(=O)Nc3cc(C(C)(C)C)on3)s2)ccn1` [Compound 364, [4-(2-{2-[3-(5-tert-Butyl-isoxazol-3-yl)-ureido]-thiazol-5-yl}-ethyl)-pyridin-2-yl]-carbamic acid ethyl ester], the IC50 was less than 250 nM.
Regarding `CC(=O)Nc1cc(CCc2cnc(NC(=O)Nc3cc(C(C)(C)C)on3)s2)ccn1` [Compound 366, N-[4-(2-{2-[3-(5-tert-Butyl-isoxazol-3-yl)-ureido]-thiazol-5-yl}-ethyl)-pyridin-2-yl]-acetamide], the IC50 was less than 250 nM.
In the case of `CC(C)(C)c1cc(NC(=O)Nc2ncc(CCc3ccnc(NC(=O)C4CC4)c3)s2)[nH]n1` [Compound 368, Cyclopropanecarboxylic acid [4-(2-{2-[3-(5-tert-butyl-2H-pyrazol-3-yl)-ureido]-thiazol-5-yl}-ethyl)-pyridin-2-yl]-amide], the IC50 is less than 250 nM.
Consider `CC(C)(C)c1cc(NC(=O)Nc2ncc(CCc3ccnc(NC(=O)C4CC4)c3)s2)no1` [Compound 369, Cyclopropanecarboxylic acid [4-(2-{2-[3-(5-tert-butyl-isoxazol-3-yl)-ureido]-thiazol-5-yl}-ethyl)-pyridin-2-yl]-amide], for which the IC50 is less than 250 nM.
Take `CC(=O)Nc1cc(CCc2ccc(NC(=O)Nc3cc(C(C)(C)C)nn3CC3CC3)c(F)c2)ccn1` [Compound 370, N-[4-(2-{4-[3-(5-tert-Butyl-2-cyclopropylmethyl-2H-pyrazol-3-yl)-ureido]-3-fluoro-phenyl}-ethyl)-pyridin-2-yl]-acetamide]: the IC50 is greater than 1000 nM.
For `CC(=O)Nc1cc(CCc2ccc(NC(=O)Nc3cc(C(C)(C)C)nn3C(C)C)c(F)c2)ccn1` [Compound 371, N-[4-(2-{4-[3-(5-tert-Butyl-2-isopropyl-2H-pyrazol-3-yl)-ureido]-3-fluoro-phenyl}-ethyl)-pyridin-2-yl]-acetamide], the IC50 was greater than 1000 nM.
Turning to `CC(C)(C)c1cc(NC(=O)Nc2ccc(CCc3ccnc(NC(=O)C4CC4)c3)cc2F)n(CC2CC2)n1` [Compound 372, Cyclopropanecarboxylic acid [4-(2-{4-[3-(5-tert-butyl-2-cyclopropylmethyl-2H-pyrazol-3-yl)-ureido]-3-fluoro-phenyl}-ethyl)-pyridin-2-yl]-amide], the IC50 was greater than 1000 nM.
Consider `CC(C)(C)c1cc(NC(=O)Nc2ccc(CCc3ccnc(NC(=O)C4CC4)c3)cc2F)on1` [Compound 374, Cycloproprinecarboxylic acid [4-(2-{4-[3-(3-tert-butyl-isoxazol-5-yl)-ureido]-3-fluoro-phenyl}-ethyl)-pyridin-2-yl]-amide], for which the IC50 was greater than 1000 nM.
On the same count and under the same terms, to `CC(C)n1nc(C(C)(C)C)cc1NC(=O)Nc1ccc(CCc2ccnc(NC(=O)C3CC3)c2)cc1F` [Compound 375, Cyclopropanecarboxylic acid [4-(2-{4-[3-(5-tert-butyl-2-isopropyl-2H-pyrazol-3-yl)-ureido]-3-fluoro-phenyl}-ethyl)-pyridin-2-yl]-amide] belongs greater than 1000 nM; to `CC(C)(C)c1cccc(NC(=O)Nc2ccc(CCc3ccnc(NC(=O)C4CC4)c3)cc2F)c1` [Compound 376, Cyclopropancearboxylic acid [4-(2-{4-[3-(3-tert-butyl-phenyl)-ureido]-3-fluoro-phenyl}-ethyl)-pyridin-2-yl]-amide], greater than 1000 nM.
Same read-out and setting: to `CC(=O)Nc1cc(CCc2ccc(NC(=O)Nc3cccc(C(C)(C)C)c3)c(F)c2)ccn1` [Compound 377, N-[4-(2-{4-[3-(3-tert-Butyl-phenyl)-ureido]-3-fluoro-phenyl}-ethyl)-pyridin-2-yl]-acetamide] belongs greater than 1000 nM; to `CC(C)(C)c1cc(NC(=O)Nc2ccc(CCc3ccnc(NC(=O)C4CC4)c3)cc2F)no1` [Compound 378, Cyclopropanecarboxylic acid [4-(2-{4-[3-(5-tert-butyl-isoxazol-3-yl)-ureido]-3-fluoro-phenyl}-ethyl)-pyridin-2-yl]-amide], greater than 1000 nM; to `CC(=O)Nc1cc(CCc2cnc(NC(=O)Nc3cc(C(C)(C)C)no3)s2)ccn1` [Compound 382], less than 250 nM.
Regarding `CC(C)(C)c1ccc(Cl)c(NC(=O)Nc2ncc(CCc3ccncc3)s2)c1` [Compound 388, 1-(5-tert-Butyl-2-chloro-phenyl)-3-[5-(2-pyridin-4-yl-thiazol)-thiazol-2-yl]-urea], the IC50 was greater than 1000 nM.
Take `CC(C)n1nc(C(C)(C)C)cc1NC(=O)Nc1ncc(CCc2ccncc2)s1` [Compound 389, 1-(5-tert-Butyl-2-isopropyl-2H-pyrazol-3-yl)-3-[5-(2-pyridin-4-yl-ethyl)-thiazol-2-yl]-urea]: the IC50 is greater than 1000 nM.
As for `CC(C)(C)c1cc(NC(=O)Nc2ncc(CCc3ccnc(NC(=O)C4CC4)c3)s2)n(-c2ccc(Cl)cc2)n1` [Compound 390, N-[4-[2-[2-[[5-tert-butyl-2-(4-chlorophenyl)pyrazol-3-yl]carbamoylamino]thiazol-5-yl]ethyl]-2-pyridyl]cyclopropanecarboxamide], the IC50 was less than 250 nM.
As to `CC(=O)Nc1cc(Oc2ccc(NC(=O)Nc3cc(C(C)(C)C)nn3C(C)C)c(F)c2)ccn1` [Compound 392, N-(4-{4-[3-(5-tert-Butyl-2-isopropyl-2H-pyrazol-3-yl)-ureido]-3-fluoro-phenoxy}-pyridin-2-yl)-acetamide], the IC50 was less than 250 nM.
`CC(=O)Nc1cc(Oc2ccc(NC(=O)Nc3cc(C(C)(C)C)on3)c(F)c2)ccn1` [Compound 394, N-(4-{4-[3-(5-tert-Butyl-isoxazol-3-yl)-ureido]-3-fluoro-phenoxy}-pyridin-2-yl)-acetamide]: the IC50 was less than 250 nM.
For `CC(=O)Nc1cc(Oc2ccc(NC(=O)Nc3cc(C(C)(C)C)no3)c(F)c2)ccn1` [Compound 395, N-(4-{4-[3-(3-tert-Butyl-isoxazol-5-yl)-ureido]-3-fluoro-phenoxy}-pyridin-2-yl)-acetamide], the IC50 is less than 250 nM.
Same read-out and setting: for `CC(=O)Nc1cc(Oc2ccc(NC(=O)Nc3cc([Si](C)(C)C)ccc3F)c(F)c2)ccn1` [Compound 399, N-(4-{3-Fluoro-4-[3-(2-fluoro-5-trimethylsilanyl-phenyl)-ureido]-phenoxy}-pyridin-2-yl)-acetamide] the value was less than 250 nM.
As for `CC(=O)Nc1cc(CCc2cnc(NC(=O)Nc3cc([Si](C)(C)C)ccc3F)s2)ccn1` [Compound 400, N-[4-(2-{2-[3-(2-Fluoro-5-trimethylsilanyl-phenyl)-ureido]-thiazol-5-yl}-ethyl)-pyridin-2-yl]-acetamide], the IC50 is less than 250 nM.
With `CC(=O)Nc1cc(COc2ccc(NC(=O)Nc3cc(C(C)(C)C)nn3-c3ccc(C)cc3)c(F)c2)ccn1` [Compound 402, N-(4-{4-[3-(5-tert-Butyl-2-p-tolyl-2H-pyrazol-3-yl)-ureido]-3-fluoro-phenoxymethyl}-pyridin-2-yl)-acetamide], the IC50 was less than 250 nM.
For `CC(=O)Nc1cc(Oc2ccc(NC(=O)Nc3cc(C4CC4)ccc3Cl)c(F)c2)ccn1` [Compound 423, N-(4-{4-[3-(2-Chloro-5-cyclopropyl-phenyl)-ureido]-3-fluoro-phenoxy}-pyridin-2-yl)-acetamide], the IC50 is less than 250 nM.
On to `O=C(CO)Nc1cc(Oc2ccc(NC(=O)Nc3cc(C4CC4)ccc3F)c(F)c2)ccn1` [Compound 424, N-(4-{4-[3-(5-Cyclopropyl-2-fluoro-phenyl)-ureido]-3-fluoro-phenoxy}-pyridin-2-yl)-2-hydroxy-acetamide], for which the IC50 is less than 250 nM.
For the compound `COCCC(=O)Nc1cc(Oc2ccc(NC(=O)Nc3cc(C4CC4)ccc3F)c(F)c2)ccn1` [Compound 425, N-(4-{4-[3-(5-Cyclopropyl-2-fluoro-phenyl)-ureido]-3-fluoro-phenoxy}-pyridin-2-yl)-3 methoxypropionamide], the IC50 was less than 250 nM.
Turning to `CC(C)(C)c1ccc(Cl)c(NC(=O)Nc2ccc(Oc3ccnc(NC(=O)CO)c3)cc2F)c1` [Compound 426, N-(4-{4-[3-(5-tert-Butyl-2-chloro-phenyl)-ureido]-3-fluoro-phenoxy}-pyridin-2-yl)-2-hydroxy-acetamide], the IC50 was less than 250 nM.
Regarding `COCCC(=O)Nc1cc(Oc2ccc(NC(=O)Nc3cc(C(C)(C)C)ccc3Cl)c(F)c2)ccn1` [Compound 427, N-(4-{4-[3-(5-tert-Butyl-2-chloro-phenyl)-ureido]-3-fluoro-phenoxy}-pyridin-2-yl)-3-methoxy-propionamide], the IC50 was less than 250 nM.
As to `CC(C)(C)c1ccc(Cl)c(NC(=O)Nc2ccc(Oc3ccnc(N)c3)cc2F)c1` [Compound 428, 1-[4-(2-Amino-pyridin-4-yloxy)-2-fluoro-phenyl]-3-(5-tert-butyl-2-chloro-phenyl)-urea], the IC50 was greater than 1000 nM.

A further test deals with T1, MAPK13. Nature of the test: biochemical.
Conditions: not given
For `COCC(=O)Nc1cc(Oc2ccc(NC(=O)Nc3cc(C4(C)COC4)nn3-c3ccc(C)cc3)c(F)c2)ccn1` [Compound 267, N-[4-[3-fluoro-4-[[5-(3-methyloxetan-3-yl)-2-(p-tolyl)pyrazol-3-yl]carbamoylamino]phenoxy]-2-pyridyl]-2-methoxy-acetamide], the IC50 was less than 250 nM.
The same measure, in the same setting: for `Cc1ccc(-n2nc(C(C)(C)C)cc2NC(=O)Nc2ncc(CCc3ccncc3)s2)cc1` [Compound 270, 1-(5-tert-Butyl-2-p-tolyl-2H-pyrazol-3-yl)-3-[5-(2-pyridin-4-yl-ethyl)-thiazol-2-yl]-urea] the value was 250 to 1000 nM.
